Test results reported in patent US11780849B2, “Imino sulfanone inhibitors of ENPP1” (Volastra Therapeutics, Inc., priority 2020, dated 2023).
pIC50, pKi: −log10 of the molar value. Where two headings read alike, the source gives them in different places.

What was measured:
ENPP-1 ECD [1] = target: T1, ENPP-1 ECD (Homo sapiens (Human), UniProt P22413); experiment: Assay 1: inhibition of ENPP1 hydrolysis of 2′,3′-cGAMP (AMP-Glo, […] enzyme); details: for IC50: inhibition of ENPP1 hydrolysis of 2′,3′-cGAMP, no unit in Table 18 (Table 17 legend for this assay uses nM)
Description: Assay 1: Test compounds were plated in a 3× dilution scheme in a 384 well plate. […] AMP Detection solution (100 μL) was added to each well, the plate centrifuged and incubated for 60 min.

ENPP-1 ECD [2] = target: T1, ENPP-1 ECD; experiment: Assay 2: inhibition of ENPP1 hydrolysis of 2′,3′-cGAMP (AMP-Glo, […] enzyme); details: for pKi: ENPP1 hydrolysis of 2′,3′-cGAMP, AMP-Glo, […] ENPP-1, 24 μM cGAMP; for Ki: inhibition of ENPP1 hydrolysis of 2′,3′-cGAMP, no unit in Table 18 (Table 17 legend for this assay uses nM)
Description: Assay 2: Compared to the conditions in Assay 1, this assay has a larger dynamic range and ensures the system is under steady-state conditions by reducing the enzyme concentration in the assay.
Test compounds were plated in a 3× dilution scheme in a 384 well plate. […] AMP Detection solution (10 μL) was added to each well, the plate centrifuged and incubated for 60 min.

[3] = target: ENPP1 on MDA-MB-231 cells (Homo sapiens (Human), UniProt P22413); experiment: Assay 3: inhibition of ENPP1 hydrolysis of AMP p-nitrophenyl ester on MDA-MB-231 cells
[4] = read-out: Assay 1 (IC50), ENPP1 hydrolysis of 2′,3′-cGAMP, AMP-Glo
[5] = read-out: Assay 3 (KI, app), apparent KI from IC50 via Cheng/Prusoff, pNP-AMP […], MDA-MB-231 cells, pH 7.4, 37° C., 3 h, unit inferred
[6] = Assay 1 (IC50), ENPP1 hydrolysis of 2′,3′-cGAMP, AMP-Glo

Chain of ENPP1 on MDA-MB-231 cells (P22413 whole entry): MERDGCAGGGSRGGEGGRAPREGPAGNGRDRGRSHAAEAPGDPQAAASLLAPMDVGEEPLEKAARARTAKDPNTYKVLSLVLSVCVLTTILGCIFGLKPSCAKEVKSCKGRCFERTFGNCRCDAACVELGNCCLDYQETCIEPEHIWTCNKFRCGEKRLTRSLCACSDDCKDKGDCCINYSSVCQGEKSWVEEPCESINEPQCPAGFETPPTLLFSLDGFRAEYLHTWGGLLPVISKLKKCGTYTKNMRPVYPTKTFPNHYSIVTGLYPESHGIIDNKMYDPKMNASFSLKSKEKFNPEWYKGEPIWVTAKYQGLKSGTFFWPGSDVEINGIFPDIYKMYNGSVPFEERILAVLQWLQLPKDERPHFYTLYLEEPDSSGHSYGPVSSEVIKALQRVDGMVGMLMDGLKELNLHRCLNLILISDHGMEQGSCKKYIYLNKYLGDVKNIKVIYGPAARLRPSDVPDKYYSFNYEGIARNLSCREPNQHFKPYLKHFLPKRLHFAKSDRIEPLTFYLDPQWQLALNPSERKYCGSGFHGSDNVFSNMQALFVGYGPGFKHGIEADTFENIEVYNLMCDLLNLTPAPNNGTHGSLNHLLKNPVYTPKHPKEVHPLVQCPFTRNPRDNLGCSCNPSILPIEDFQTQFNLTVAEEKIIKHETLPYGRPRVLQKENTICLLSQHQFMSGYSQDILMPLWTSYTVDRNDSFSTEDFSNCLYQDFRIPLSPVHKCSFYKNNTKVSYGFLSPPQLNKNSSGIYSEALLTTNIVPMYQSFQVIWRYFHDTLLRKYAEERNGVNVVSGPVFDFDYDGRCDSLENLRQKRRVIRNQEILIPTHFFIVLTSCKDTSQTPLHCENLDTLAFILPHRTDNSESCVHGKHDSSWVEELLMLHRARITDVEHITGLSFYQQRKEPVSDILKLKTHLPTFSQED
T1 sequence (P22413 98-925): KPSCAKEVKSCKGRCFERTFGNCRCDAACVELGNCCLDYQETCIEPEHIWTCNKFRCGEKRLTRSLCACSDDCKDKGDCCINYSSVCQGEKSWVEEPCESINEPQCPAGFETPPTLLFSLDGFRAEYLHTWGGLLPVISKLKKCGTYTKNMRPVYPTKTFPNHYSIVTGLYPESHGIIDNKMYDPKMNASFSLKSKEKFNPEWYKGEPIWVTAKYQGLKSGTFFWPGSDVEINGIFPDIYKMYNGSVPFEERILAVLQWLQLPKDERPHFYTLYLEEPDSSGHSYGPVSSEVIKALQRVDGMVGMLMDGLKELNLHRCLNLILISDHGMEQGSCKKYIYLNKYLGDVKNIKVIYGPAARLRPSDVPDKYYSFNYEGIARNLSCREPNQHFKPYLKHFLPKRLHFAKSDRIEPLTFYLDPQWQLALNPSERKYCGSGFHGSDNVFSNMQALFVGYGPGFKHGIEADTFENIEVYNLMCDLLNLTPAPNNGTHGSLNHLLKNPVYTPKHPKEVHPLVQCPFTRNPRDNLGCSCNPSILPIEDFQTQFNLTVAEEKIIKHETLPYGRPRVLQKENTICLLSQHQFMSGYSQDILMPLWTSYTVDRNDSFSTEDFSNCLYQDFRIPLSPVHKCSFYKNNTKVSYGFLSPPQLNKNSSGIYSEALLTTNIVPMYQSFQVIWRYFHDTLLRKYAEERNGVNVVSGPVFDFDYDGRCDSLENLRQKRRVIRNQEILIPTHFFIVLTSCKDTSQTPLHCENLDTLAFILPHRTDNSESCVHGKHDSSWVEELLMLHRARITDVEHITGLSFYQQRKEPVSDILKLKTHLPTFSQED

SMILES	IC50 (ENPP-1 ECD [1]; Assay 1 (IC50))	pIC50 (ENPP-1 ECD [1]; [4])	pKi (ENPP-1 ECD [2]; Assay 2 (KI))	Ki (ENPP-1 ECD [2]; Assay 2 (KI))	pKi [3]	IC50 (ENPP-1 ECD [1]; read-out: Assay 1 (IC50))	pKi (ENPP-1 ECD [2]; read-out: Assay 2 (KI))	Ki (ENPP-1 ECD [2]; read-out: Assay 2 (KI))	pKi [3, 5]	pIC50 (ENPP-1 ECD [1]; [6])	pIC50 (ENPP-1 ECD [1]; IC50 in Assay 1, […] ENPP-1 ECD, 24 μM 2,3-cGAMP, pH 8.0)
COc1ccc2c(Oc3ccc(S(=N)(=O)C4CC4)cc3)ccnc2c1 (stereo not shown) [Compound 60, cyclopropyl(imino)(4-((7-methoxyquinolin-4-yl)oxy)phenyl)-λ^6-sulfanone]	2.8 nM	> 8.00	> 8.52	0.34 nM	7.64	–	–	–	–	–	–
COc1ccc2c(Oc3ccc([S@@](=N)(=O)C4CC4)cc3)ccnc2c1 [Compound 60a]	–	> 8.00	–	–	–	1.3 nM	> 8.52	0.099 nM	7.96	–	–
COc1cccc2c(N3CCC(CCS(C)(=N)=O)CC3)ncnc12 (stereo not shown) [Compound 72, imino({2-[1-(8-methoxyquinazolin-4-yl)piperidin-4-yl]ethyl})methyl-λ^6-sulfanone]	120 nM	–	6.52 to 8.52	18 nM	6.37	–	–	–	–	6.00 to 8.00	–
COc1ccc2c(OCc3ccc(S(C)(=N)=O)cc3)ccnc2c1 (stereo not shown) [Compound 75, imino(4-(((7-methoxyquinolin-4-yl)oxy)methyl)phenyl)(methyl)-λ^6-sulfanone]	4.4 nM	> 8.00	> 8.52	0.49 nM	7.51	–	–	–	–	–	–
COc1ccc2c(OCc3ccc([S@@](C)(=N)=O)cc3)ccnc2c1 [Compound 75a]	–	> 8.00	–	–	–	3 nM	> 8.52	0.38 nM	7.66	–	–
COc1ccc2c(Oc3ccc(S(C)(=N)=O)cc3)ccnc2c1 (stereo not shown) [Compound 80, imino(4-((7-methoxyquinolin-4-yl)oxy)phenyl)(methyl)-λ^6-sulfanone]	6.2 nM	> 8.00	> 8.52	1.1 nM	7.54	–	–	–	–	–	8.85
COc1ccc2c(Oc3ccc([S@@](C)(=N)=O)cc3)ccnc2c1 [Compound 80a]	–	> 8.00	–	–	–	2.2 nM	> 8.52	0.26 nM	7.89	–	–
COc1cc2ncnc(N3CCC(CNS(C)(=N)=O)CC3)c2cc1OC (stereo not shown) [Compound 94, N-((1-(6,7-dimethoxyquinazolin-4-yl)piperidin-4-yl)methyl)methanesulfonimidamide]	6.6 nM	> 8.00	> 8.52	1.3 nM	7.08	–	–	–	–	–	–
COc1ccc2c(Oc3ccc(S(C)(=N)=O)nc3)ccnc2c1 (stereo not shown) [Compound 101, imino({5-[(7-methoxyquinolin-4-yl)oxy]pyridin-2-yl})methyl-λ^6-sulfanone]	40 nM	–	6.52 to 8.52	5.4 nM	6.52	–	–	–	–	6.00 to 8.00	–
CCS(=N)(=O)c1ccc(Oc2ccnc3cc(OC)ccc23)cc1 (stereo not shown) [Compound 103, ethyl(imino)(4-((7-methoxyquinolin-4-yl)oxy)phenyl)-λ^6-sulfanone]	9 nM	> 8.00	> 8.52	1.3 nM	7.31	–	–	–	–	–	–
CC[S@](=N)(=O)c1ccc(Oc2ccnc3cc(OC)ccc23)cc1 [Compound 103b]	–	> 8.00	–	–	–	2.2 nM	> 8.52	0.31 nM	7.52	–	–
COc1cc2nccc(Oc3ccc(S(C)(=N)=O)cc3)c2cc1F (stereo not shown) [Compound 114, {4-[(6-fluoro-7-methoxyquinolin-4-yl)oxy]phenyl}(imino)methyl-λ^6-sulfanone]	2.8 nM	–	> 8.52	0.27 nM	7.72	–	–	–	–	–	–
COc1cc2nccc(Oc3ccc([S@](C)(=N)=O)cc3)c2cc1F [Compound 114a]	–	> 8.00	–	–	–	0.94 nM	> 8.52	0.088 nM	8.20	–	–
COc1cc2nccc(Oc3ccc(S(=N)(=O)C4CC4)cc3)c2cc1F (stereo not shown) [Compound 120, [cyclopropyl({4-[(6-fluoro-7-methoxyquinolin-4-yl)oxy]phenyl})imino-λ^6-sulfanyl]one]	1.1 nM	> 8.00	> 8.52	0.12 nM	8.21	–	–	–	–	–	–
